Source: patent US11613531B2, “Inhibitors of RHO associated coiled-coil containing protein kinase” (Kadmon Corporation, LLC, priority 2017, dated 2023)
Where two headings read alike, the source gives them in different places.

What was measured:
[1] = test system: ppMlc (T18/S19) levels in A7R5 cells; assay: A7R5 in-cell ELISA (pMLC); format: cell-based, Rat; conditions: Rattus norvegicus, A7R5, A7R5 cells; for inhibition at 10 µM: 10 μM compound; for inhibition at 10 µM / inhibition at 1 µM: read-out: pMLC % inh A7R5 @ [conc]; for inhibition at 1 µM: 1 μM compound
How it was run: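 Cellular IC50 came from a nonlinear regression fit of ppMlc (T18/S19) signal, read by colorimetric in-cell ELISA on fixed cells. Rat A7R5 aortic smooth muscle cells had been exposed for 90 min to compounds in 9-point 2-fold serial dilution, 24 h after seeding.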

[2] = biological target: Recombinant ROCK2 (amino acids 1-552) (Homo sapiens (Human), UniProt O75116); assay: Z′-Lyte kinase assay, ROCK2; format: biochemical; conditions: for inhibition at 3 µM: 3 μM compound; for inhibition at 3 µM / inhibition at 0.5 µM: read-out: ROCK2 % inh. @ [conc]; for inhibition at 0.5 µM: 0.5 μM compound
Recombinant ROCK2 (amino acids 1-552), sequence (O75116 1-552): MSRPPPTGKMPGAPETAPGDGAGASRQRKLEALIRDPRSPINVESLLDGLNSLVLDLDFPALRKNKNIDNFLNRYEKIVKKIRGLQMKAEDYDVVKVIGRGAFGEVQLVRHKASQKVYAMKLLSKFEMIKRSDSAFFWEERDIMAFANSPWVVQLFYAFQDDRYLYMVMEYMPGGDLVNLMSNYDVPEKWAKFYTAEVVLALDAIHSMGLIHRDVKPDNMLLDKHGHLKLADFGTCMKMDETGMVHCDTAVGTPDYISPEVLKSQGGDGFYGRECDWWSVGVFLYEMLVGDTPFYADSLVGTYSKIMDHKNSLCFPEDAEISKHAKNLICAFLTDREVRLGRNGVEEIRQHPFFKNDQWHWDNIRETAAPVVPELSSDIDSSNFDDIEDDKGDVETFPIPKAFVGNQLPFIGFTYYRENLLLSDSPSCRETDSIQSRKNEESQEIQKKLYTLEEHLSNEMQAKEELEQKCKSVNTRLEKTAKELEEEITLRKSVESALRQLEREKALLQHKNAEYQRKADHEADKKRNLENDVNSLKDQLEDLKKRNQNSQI
How it was run: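 IC50s derive from nonlinear curve fits over a 9-point, 2-fold dilution series, with single-point inhibition at 1 μM expressed relative to DMSO. Activity of truncated human ROCK1 (residues 1-535) and ROCK2 (residues 1-552) measured with the Z′-Lyte kinase format.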

[3] = biological target: Recombinant ROCK1 (amino acids 1-535) (Homo sapiens (Human), UniProt Q13464); assay: Z′-Lyte kinase assay, ROCK1; format: biochemical; conditions: for inhibition at 3 µM: 3 μM compound; for inhibition at 3 µM / inhibition at 0.5 µM: read-out: ROCK1 % inh. @ [conc]; for inhibition at 0.5 µM: 0.5 μM compound
Recombinant ROCK1 (amino acids 1-535), sequence (Q13464 1-535): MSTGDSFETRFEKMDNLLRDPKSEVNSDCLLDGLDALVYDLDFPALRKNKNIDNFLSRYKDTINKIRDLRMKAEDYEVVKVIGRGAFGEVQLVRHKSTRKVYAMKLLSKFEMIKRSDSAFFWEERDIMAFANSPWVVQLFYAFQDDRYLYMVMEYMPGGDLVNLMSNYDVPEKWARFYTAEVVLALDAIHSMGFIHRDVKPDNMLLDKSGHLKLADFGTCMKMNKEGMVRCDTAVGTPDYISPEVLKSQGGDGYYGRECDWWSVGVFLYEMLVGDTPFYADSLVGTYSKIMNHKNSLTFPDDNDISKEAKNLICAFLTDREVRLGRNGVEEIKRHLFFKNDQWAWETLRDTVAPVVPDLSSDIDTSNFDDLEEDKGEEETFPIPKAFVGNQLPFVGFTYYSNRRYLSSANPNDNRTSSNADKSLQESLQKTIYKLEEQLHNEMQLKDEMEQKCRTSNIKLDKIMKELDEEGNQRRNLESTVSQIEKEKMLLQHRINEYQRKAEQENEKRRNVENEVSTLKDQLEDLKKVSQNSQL
Description: Determination of Compound's ROCK Inhibitory Activity In Vitro (Z'Lyte Assay).
Recombinant ROCK1 (amino acids 1-535) and ROCK2 (amino acids 1-552) proteins were purchased from ThermoFisher Scientific. Compound's activities were measured by Z′-lyte kinase kit (ThermoFisher Scientific) and IC50 was calculated
In vitro activities for the compounds were measured with Z′-lyte kinase kit (ThermoFisher Scientific). The percent inhibition rate was calculated by normalizing the kinase activity value obtained with 1 μM compound treatment against DMSO control value and then applied to the formula, [1-(compound/DMSO)]×100%. IC50s were calculated using the nonlinear regression curve fit function of the GraphPad Prism software with kinase activities data measured with 9 points 2-fold serial dilution of compounds treatment. In cell pMLC IC50s were calculated with data obtained from A7R5 cell experiments. A7R5 cells were treated with 9 points 2-fold serial dilution of compounds and ppMlc (T18/S19) levels were determined to calculate cellular IC50 values of the compounds using the nonlinear regression curve fit function of the GraphPad Prism software. NIH3T3 cells stably expressing ACTA2-promoter-driven-luciferase were applied to measure ROCK compounds functional IC50s in cells. Cells were plated in 96 well plates to confluence and treated with 9 points serial dilution of compounds in combination with TGFβ1 for 24 hr. Luciferase activities were measured and compound's IC50s were calculated using the nonlinear regression curve fit function of the GraphPad Prism software.

[4] = 9 points 2-fold serial dilution

SMILES | IC50 [2] | IC50 [3] | IC50 ([1]; ppMlc (T18/S19)) | inhibition at 3 µM [2] | IC50 [2, 4] | inhibition at 3 µM [3] | IC50 [3, 4] | IC50 [1] | inhibition at 10 µM [1] | inhibition at 1 µM [1] | inhibition at 0.5 µM [2] | inhibition at 0.5 µM [3]
c1cncc(-c2cccc(Nc3ccnc(N4CCNCC4)n3)c2)c1 [Example 346, 2-(piperazin-1-yl)-N-(3-(pyridin-3-yl)phenyl)pyrimidin-4-amine] | > 10000 nM | > 10000 nM | – | – | – | – | – | – | 12.3% | – | – | –
Cc1cc(Nc2ccc(-c3ccncc3)cc2)nc(N2CCCNC(C)C2)n1 (centres unmarked) [Example 247, 6-methyl-2-(3-methyl-1,4-diazepan-1-yl)-N-(4-(pyridin-4-yl)phenyl)pyrimidin-4-amine] | – | – | 1960 nM | 100% | 407 nM | 100% | 132 nM | – | – | – | – | –
CCCC1CNCCN1c1nccc(Nc2ccc3[nH]ncc3c2)n1 (centres unmarked) [Example 69, N-(2-(2-propylpiperazin-1-yl)pyrimidin-4-yl)-1H-indazol-5-amine] | – | – | – | – | – | – | – | – | – | 19.3% | 52% | 67%
c1cc(-c2ccc(Nc3nc(N4C5CCC4CNC5)nc4c3COC4)cc2)ccn1 [Example 281, 2-(3,8-diazabicyclo[3.2.1]octan-8-yl)-N-(4-(pyridin-4-yl)phenyl)-5,7-dihydrofuro[3,4-d]pyrimidin-4-amine] | 2570 nM | – | – | – | – | – | – | – | – | 10.4% | 10% | 14%
CCC1CCN(c2nccc(Nc3ccc(-c4ccncc4)cc3)n2)CCN1 (centres unmarked) [Example 249, 2-(5-ethyl-1,4-diazepan-1-yl)-N-(4-(pyridin-4-yl)phenyl)pyrimidin-4-amine] | – | – | – | – | > 1000 nM | – | > 1000 nM | – | 33.6% | – | – | –
Cc1cc(Nc2ccc(-c3ccncc3)cc2)nc(N2CCNC(C)CC2)n1 (centres unmarked) [Example 245, 6-methyl-2-(5-methyl-1,4-diazepan-1-yl)-N-(4-(pyridin-4-yl)phenyl)pyrimidin-4-amine] | – | – | 8220 nM | 100% | > 1000 nM | 100% | > 1000 nM | – | – | – | – | –
c1cc2[nH]ncc2cc1Nc1nc(N2CC3CCC(C2)N3)nc2c1COC2 [Example 39, 2-(3,8-diazabicyclo[3.2.1]octan-3-yl)-N-(1H-indazol-5-yl)-5,7-dihydrofuro[3,4-d]pyrimidin-4-amine] | – | – | – | – | – | – | – | – | – | 6.6% | 64% | 67%
CC(C)C1CCN(c2nccc(Nc3ccc4[nH]ncc4c3)n2)CCN1 (centres unmarked) [Example 61, N-(2-(5-isopropyl-1,4-diazepan-1-yl)pyrimidin-4-yl)-1H-indazol-5-amine] | – | – | 8170 nM | 100% | > 1000 nM | 100% | > 1000 nM | – | – | – | – | –
c1cc(Nc2ccc3[nH]ncc3c2)nc(N2CC3CNCC3C2)n1 (centres unmarked) [Example 210, N-(2-(hexahydropyrrolo[3,4-c]pyrrol-2(1H)-yl)pyrimidin-4-yl)-1H-indazol-5-amine] | – | – | 589 nM | 0% | – | 41.9% | – | – | 73.4% | – | – | –
CC1CCN(c2nccc(Nc3ccc(-c4ccncc4)cc3)n2)CCN1 (centres unmarked) [Example 45, 2-(5-methyl-1,4-diazepan-1-yl)-N-(4-(pyridin-4-yl)phenyl)pyrimidin-4-amine] | – | – | 2120 nM | 98.8% | 649 nM | 99% | 307 nM | – | – | – | – | –
CCC1CN(c2nccc(Nc3ccc4[nH]ncc4c3)n2)CCCN1 (centres unmarked) [Example 62, N-(2-(3-ethyl-1,4-diazepan-1-yl)pyrimidin-4-yl)-1H-indazol-5-amine] | – | – | 1300 nM | 100% | 177 nM | 100% | 179 nM | – | – | – | – | –
CC1CNCCCN1c1nccc(Nc2ccc3[nH]ncc3c2)n1 (centres unmarked) [Example 238, N-(2-(2-methyl-1,4-diazepan-1-yl)pyrimidin-4-yl)-1H-indazol-5-amine] | – | – | 215 nM | – | 17 nM | – | 55 nM | – | 70% | – | – | –
c1cc2[nH]ncc2cc1Nc1nc(N2CC3CC2CN3)nc2c1COC2 (centres unmarked) [Example 284, 2-(2,5-diazabicyclo[2.2.1]heptan-2-yl)-N-(1H-indazol-5-yl)-5,7-dihydrofuro[3,4-d]pyrimidin-4-amine] | – | – | – | – | – | – | – | – | – | 24.1% | 30% | 25%
CC1CN(c2nccc(Nc3ccc4[nH]ncc4c3)n2)CCN1 (centres unmarked) [Example 225, N-(2-(3-methylpiperazin-1-yl)pyrimidin-4-yl)-1H-indazol-5-amine] | – | – | 532 nM | 98.3% | 98 nM | 80.9% | – | – | 78% | – | – | –
CC(C)C1CN(c2nccc(Nc3ccc(-c4ccncc4)cc3)n2)CCCN1 (centres unmarked) [Example 251, 2-(3-isopropyl-1,4-diazepan-1-yl)-N-(4-(pyridin-4-yl)phenyl)pyrimidin-4-amine] | – | – | 614 nM | – | 160 nM | – | 57 nM | – | 66.9% | – | – | –
c1ccc(C2CCN(c3nccc(Nc4ccc(-c5ccncc5)cc4)n3)CCN2)cc1 (centres unmarked) [Example 271, 2-(5-phenyl-1,4-diazepan-1-yl)-N-(4-(pyridin-4-yl)phenyl)pyrimidin-4-amine] | – | – | – | – | > 1000 nM | – | > 1000 nM | – | 28.3% | – | – | –
CC1CNCCN1c1nccc(Nc2ccc3[nH]ncc3c2)n1 (centres unmarked) [Example 232, N-(2-(2-methylpiperazin-1-yl)pyrimidin-4-yl)-1H-indazol-5-amine] | – | – | 129 nM | 104% | 22 nM | 100% | 75 nM | – | 93% | – | – | –

Further lines, with some results ahead:

IC50 [2] | IC50 [3] | IC50 ([1]; ppMlc (T18/S19)) | inhibition at 3 µM [2] | IC50 [2, 4] | inhibition at 3 µM [3] | IC50 [3, 4] | IC50 [1] | SMILES | inhibition at 10 µM [1] | inhibition at 1 µM [1] | inhibition at 0.5 µM [2] | inhibition at 0.5 µM [3]
– | – | 6350 nM | 100% | > 1000 nM | 100% | > 1000 nM | – | CC1CCN(c2nc(Nc3ccc(-c4ccncc4)cc3)c3ccccc3n2)CCN1 (centres unmarked) [Example 239, 2-(5-methyl-1,4-diazepan-1-yl)-N-(4-(pyridin-4-yl)phenyl)quinazolin-4-amine] | – | – | – | –
217 nM | > 10000 nM | – | – | – | – | – | 712 nM | COc1cccc(CNC2CCCN(c3nccc(Nc4ccc5[nH]ncc5c4)n3)C2)c1 (centres unmarked) [Example 233, N-(2-(3-((3-methoxybenzyl)amino)piperidin-1-yl)pyrimidin-4-yl)-1H-indazol-5-amine] | 95.1% | – | – | –
29 nM | 31 nM | – | 101% | – | 102% | – | 393 nM | c1cc(Nc2ccc3[nH]ncc3c2)nc(N2CCNCC2)n1 [Example 34, N-(2-(piperazin-1-yl)pyrimidin-4-yl)-1H-indazol-5-amine] | 62.4% | – | – | –
– | – | 4780 nM | 100% | 902 nM | 100% | 671 nM | – | CC(C)C1CN(c2nccc(Nc3ccc4[nH]ncc4c3)n2)CCN1 (centres unmarked) [Example 59, N-(2-(3-isopropylpiperazin-1-yl)pyrimidin-4-yl)-1H-indazol-5-amine] | – | – | – | –
– | – | 1080 nM | 98.8% | 144 nM | 99% | 192 nM | – | CCC1CN(c2nccc(Nc3ccc4[nH]ncc4c3)n2)CCN1 (centres unmarked) [Example 58, N-(2-(3-ethylpiperazin-1-yl)pyrimidin-4-yl)-1H-indazol-5-amine] | – | – | – | –
– | – | – | 85.8% | – | 88.5% | – | – | c1ccc2c(Nc3ccc(-c4ccncc4)cc3)nc(N3CCCNCC3)nc2c1 [Example 272, 2-(1,4-diazepan-1-yl)-N-(4-(pyridin-4-yl)phenyl)quinazolin-4-amine] | 53.3% | – | – | –
– | – | 561 nM | 98% | 57 nM | 89.1% | 46 nM | – | CC1CN(c2nccc(Nc3ccc4[nH]ncc4c3)n2)CCCN1 (centres unmarked) [Example 203, N-(2-(3-methyl-1,4-diazepan-1-yl)pyrimidin-4-yl)-1H-indazol-5-amine] | 63.5% | – | – | –
– | – | 63 nM | 102% | 54 nM | 98.3% | – | – | Cc1cc(Nc2ccc3[nH]ncc3c2)nc(N2CCCNCC2)n1 [Example 5, N-(2-(1,4-diazepan-1-yl)-6-methylpyrimidin-4-yl)-1H-indazol-5-amine] | 86% | – | – | –
– | – | 1980 nM | – | 353 nM | – | 98 nM | – | CC(C)C1CN(c2nccc(Nc3ccc4[nH]ncc4c3)n2)CCCN1 (centres unmarked) [Example 65, N-(2-(3-isopropyl-1,4-diazepan-1-yl)pyrimidin-4-yl)-1H-indazol-5-amine] | 47.8% | – | – | –
